Molecules are shown by their SMILES. pEC50: −log10 of the molar value. Read-outs that look alike come from different tables or passages of the source.

For assay [1], the target named is T1, recombinant human Meningioma Expressed Antigen 5 (MGEA5), also referred to as O-GlcNAcase (OGA) (Homo sapiens, UniProt O60502).
T1 construct: Full length OGA enzyme was purchased at OriGene (cat # TP322411); purchased OriGene TP322411
T1 sequence (O60502 1-916): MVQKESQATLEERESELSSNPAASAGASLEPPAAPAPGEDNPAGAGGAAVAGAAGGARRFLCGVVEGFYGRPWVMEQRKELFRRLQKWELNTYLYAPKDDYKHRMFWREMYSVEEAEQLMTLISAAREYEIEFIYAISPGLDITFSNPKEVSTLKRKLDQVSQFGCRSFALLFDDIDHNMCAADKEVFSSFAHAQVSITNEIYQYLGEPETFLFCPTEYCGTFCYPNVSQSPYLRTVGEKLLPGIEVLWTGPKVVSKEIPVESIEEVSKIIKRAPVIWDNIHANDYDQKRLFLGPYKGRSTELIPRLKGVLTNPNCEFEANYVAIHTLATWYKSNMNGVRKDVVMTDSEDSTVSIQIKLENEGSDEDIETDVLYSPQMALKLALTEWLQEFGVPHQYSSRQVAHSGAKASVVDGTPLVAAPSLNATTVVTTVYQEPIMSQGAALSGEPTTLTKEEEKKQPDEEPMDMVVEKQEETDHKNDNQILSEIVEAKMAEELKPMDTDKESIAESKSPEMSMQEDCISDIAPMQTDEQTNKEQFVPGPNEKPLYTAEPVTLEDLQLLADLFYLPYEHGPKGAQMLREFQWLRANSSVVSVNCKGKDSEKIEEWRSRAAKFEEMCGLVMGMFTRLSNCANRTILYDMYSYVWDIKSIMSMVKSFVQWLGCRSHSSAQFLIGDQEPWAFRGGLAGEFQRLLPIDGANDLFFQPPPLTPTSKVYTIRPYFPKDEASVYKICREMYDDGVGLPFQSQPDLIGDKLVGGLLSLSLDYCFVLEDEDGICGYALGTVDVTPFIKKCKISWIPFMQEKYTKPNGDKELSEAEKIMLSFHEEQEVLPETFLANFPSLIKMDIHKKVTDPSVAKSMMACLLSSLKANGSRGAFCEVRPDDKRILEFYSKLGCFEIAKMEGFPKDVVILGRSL
As to the kind of experiment: OGA biochemical assay: inhibition of FM-GlcNAc hydrolysis, fluorescence; protocol A (10 nM OGA, 1 h) or protocol B (2 nM OGA, 6 h). To be noted: for IC50: read-out: Enzymatic hOGA, pIC50 (converted). How it is done: The hydrolysis FM-GlcNAc (Marker Gene technologies, cat # M1485) results in the formation of ß-D-N-glucosamineacetate and fluorescein. The fluorescence of the latter can be measured at excitation wavelength 485 nm and emission wavelength 538 nm. An increase in enzyme activity results in an increase in fluorescence signal. Full length OGA enzyme was purchased at OriGene (cat # TP322411). The enzyme was stored in 25 mM Tris.HCl, pH 7.3, 100 mM glycine, 10% glycerol at −20° C. […] The assay was performed in 200 mM Citrate/phosphate buffer supplemented with 0.005% Tween-20. 35.6 g Na2HPO4 2 H2O (Sigma, # C0759) were dissolved in 1 L water to obtain a 200 mM solution. […] The buffer to stop the reaction consists of a 500 mM Carbonate buffer, pH 11.0. […] OGA was used at a 10 nM (protocol A) or 2 nM (protocol B) concentration and FM-GlcNAc at a 100 uM final concentration. Dilutions were prepared in assay buffer.
Plates were pre-incubated for 60 min at room temperature and then 2 μl FM-GlcNAc substrate mix added. […] Plates were briefly centrifuged for 1 min at 1000 rpm and incubate at room temperature for 1 h (10 nM OGA, protocol A) or 6 h (2 nM OGA, protocol B). To stop the reaction 5 μl STOP buffer were added and plates centrifuge again 1 min at 1000 rpm. Fluorescence was quantified in the Thermo Scientific Fluoroskan Ascent or the PerkinElmer EnVision with excitation wavelength 485 nm and emission wavelength 538 nm.
For analysis a best-fit curve is fitted by a minimum sum of squares method. From this an IC50 value and Hill coefficient was obtained. High control (no inhibitor) and low control (saturating concentrations of standard inhibitor) were used to define the minimum and maximum values.

For the next assay, the target named is T2, OGA (Homo sapiens, UniProt O60502).
T2 construct: HEK293 cells inducible for P301L mutant human Tau (isoform 2N4R) were established at Janssen; endogenous in cells; host or cells: HEK293 cells inducible for P301L mutant human Tau (2N4R)
T2 sequence (O60502 1-916): T1 sequence (O60502 1-916)
In words: OGA cellular assay: immunocytochemical detection of O-GlcNAcylated proteins in HEK293 cells inducible for P301L mutant human Tau. The assay is classed as cell-based. To be noted: for Emax: HEK293, read-out: Cellular Emax (%); for Cellular hOGA; pEC50 / Cellular Emax (%): HEK293 cells inducible for P301L mutant human Tau, 6 hours incubation; for Cellular Emax (%): maximum = Thiamet G 200 uM. The text has this:
HEK293 cells inducible for P301L mutant human Tau (isoform 2N4R) were established at Janssen. Thiamet-G was used for both plate validation (high control) and as reference compound (reference EC50 assay validation). […] Inhibition of OGA will result in an increase of O-GlcNAcylated protein levels resulting in an increased signal in the experiment. […] ICC pictures are imaged with a Perkin Elmer Opera Phenix plate microscope and quantified with the provided software Perkin Elmer Harmony 4.1.
Cells were propagated in DMEM high Glucose (Sigma, # D5796) following standard procedures. […] At the day of compound test medium from assay plates was removed and replenished with 90 μl of fresh Assay Medium. 10 μl of compounds at a 10 fold final concentration were added to the wells. Plates were centrifuged shortly before incubation in the cell incubator for 6 hours. DMSO concentration was set to 0.2%. Medium is discarded by applying vacuum. For staining of cells medium was removed and cells washed once with 100 μl D-PBS (Sigma, # D8537). From next step onwards unless other stated assay volume was always 50 μl and incubation was performed without agitation and at room temperature. […] Before analysis samples were washed 2 times manually for 5 minutes in ICC base buffer.
Imaging is performed using Perkin Elmer Phenix Opera using a water 20× objective and recording 9 fields per well. Intensity readout at 488 nm is used as a measure of O-GlcNAcylation level of total proteins in wells. To assess potential toxicity of compounds nuclei were counted using the Hoechst staining. IC50-values are calculated using parametric non-linear regression model fitting. As a maximum inhibition Thiamet G at a 200 uM concentration is present on each plate. In addition, a concentration response of Thiamet G is calculated on each plate.

Where [2] appears, read: Enzymatic protocol B (2 nM OGA, 6 h).
Setting [3] is: Enzymatic protocol A (10 nM OGA, 1 h).

As usually defined, the Emax is the greatest response seen or fitted, relative to the assay's reference. What is called pEC50 is the negative decadic logarithm of the EC50, by convention in mol/L. The low end stands for a large EC50, the high end for a small EC50. `CC(=O)Nc1ncc(CN2CCCC(Cc3cncc4nccn34)C2)s1` (centres unmarked) [Product 45]: in assay [1] (setting [2]), the maximal effect (Emax) worked out at 100% and the IC50 is 4.68 nM. Moreover, on OGA, the pEC50 is 7.87 and the Emax was 96.9%.
Taken in the same sequence, the figures for `CC(=O)Nc1ncc(CN2CCCC(Cc3cc(C)nc4ncnn34)C2)s1` (centres unmarked) [Product 46] were 99.8%, 2.34 nM, 7.83 and 114%.
For the molecule `CC(=O)Nc1ncc(CN2CCCC(Cc3c(F)c(C)nc4ncnn34)C2)s1` (centres unmarked) [Product 47], in assay [1] (setting [2]), the maximum response (Emax) was 102% and the IC50 was 1.26 nM. Moreover, on OGA, the negative-log EC50 (pEC50) was 7.81 and the Emax is 109%.
For `CC(=O)Nc1ncc(CN2CCC(Cc3cc(C)nc4ncnn34)C2)s1` (centres unmarked) [Product 48], in assay [1] (setting [2]), the maximum response (Emax) came out at 103% and the IC50 is 1.74 nM. On OGA, the pEC50 was 7.77 and the Emax is 104%.
As to `CC(=O)Nc1ncc(CN2CCC(Cc3c(F)c(C)nc4ncnn34)C2)s1` (centres unmarked) [Product 49], in assay [1] (setting [2]), the Emax came out at 101% and the IC50 is 1.74 nM. At OGA, the negative logarithm of the EC50 (pEC50) was 7.59 and the maximal effect (Emax) was 105%.
On to `CC(=O)Nc1ncc(CN2CCC(Cc3cccc4nccn34)C2)s1` (centres unmarked) [Product 50], for which, in assay [1] (setting [2]), the maximal response (Emax) was 99.6% and the IC50 was 9.33 nM. Moreover, at OGA, the pEC50 is 7.47 and the Emax turned out to be 103%.
Consider `Cc1cc(C2CCCN(C(C)c3ccc4c(c3)OCO4)C2)n2ccnc2n1` (centres unmarked) [Product 52], for which, in assay [1] (setting [2]), the maximal effect (Emax) came to 101% and the IC50 is 18.6 nM. On OGA, the pEC50 was 5.58 and the maximum response (Emax) came out at 131%.
For `CC(c1ccc2c(c1)OCO2)N1CCOC(c2ccnc3ncnn23)C1` (centres unmarked) [Product 55], in assay [1] (setting [2]), the Emax is 51.8% and the IC50 is 9550 nM. Moreover, on OGA, the pEC50 is less than 5.00 and the Emax turned out to be 1.01%.
Taken in the same sequence, the figures for `c1cc(CC2CCN(Cc3ccc4nccnc4c3)C2)n2ccnc2c1` (centres unmarked) [Product 58] were 97.3%, 245 nM, less than 5.00 and 4.1%.
Turning to `CC(=O)Nc1ncc(CN2CCC3(CC3)C(c3cc(C(F)F)nc4ncnn34)C2)s1` (centres unmarked) [Product 64], in assay [1] (setting [3]), the Emax was found to be 101% and the IC50 is 69.2 nM. On OGA, the pEC50 was 5.32 and the maximal response (Emax) stood at 84.5%.
For the molecule `CC(=O)Nc1ncc(CN2CCCC(Cc3cccc4nccn34)C2)s1` (centres unmarked) [Product 66], in assay [1] (setting [2]), the maximum response (Emax) is 101% and the IC50 is 29.5 nM. Further, at OGA, the pEC50 was 7.74 and the maximum response (Emax) stood at 97.3%.
Consider `CC(=O)Nc1ncc(CN2CCC(Cc3cnc4ccn(C)c4c3)C2)s1` (centres unmarked) [Product 69], for which, in assay [1] (setting [2]), the maximal effect (Emax) turned out to be 99.6% and the IC50 is 3.02 nM. For the same molecule, at OGA, the negative logarithm of the EC50 (pEC50) is 7.63 and the Emax was determined as 108%.
For the molecule `CC(=O)Nc1ncc(CN2CCCC(c3ccc4ccn(C)c4n3)C2)s1` (centres unmarked) [Product 73], in assay [1] (setting [2]), the maximum response (Emax) came out at 101% and the IC50 is 81.3 nM. For the same molecule, at OGA, the pEC50 was 6.71 and the Emax was determined as 87.2%.
With `CC(=O)Nc1ncc(CN2CCCC(c3cc(C)nc4ccn(C)c34)C2)s1` (centres unmarked) [Product 86], in assay [1] (setting [2]), the “Enzymatic Emax (%)” value is given as 102.93% and the “Enzymatic hOGA; pIC50” value amounted to 8.38. Besides, at OGA, the “Cellular hOGA; pEC50” value is listed as 7.18 and the “Cellular Emax (%)” value worked out at 100.91%.
Regarding `CC(=O)Nc1ncc(CN2CCCC(c3nc(C)cc4ccn(C)c34)C2)s1` (centres unmarked) [Product 88], in assay [1] (setting [2]), the Emax worked out at 101% and the IC50 is 83.2 nM. Besides, at OGA, the pEC50 was 6.39 and the Emax amounted to 57.4%.
Turning to `CC(=O)Nc1ncc(CN2CCCC(c3nc(C)cc4cc[nH]c34)C2)s1` (centres unmarked) [Product 91], in assay [1] (setting [2]), the Emax amounted to 103% and the IC50 is 95.5 nM. Moreover, on OGA, the pEC50 was 7.35 and the Emax was 84.3%.
With `CC(=O)Nc1ncc(CN2CCCC(c3nc(C)cc4cc[nH]c34)C2)s1` (centres unmarked) [Product 93], in assay [1] (setting [2]), the “Enzymatic Emax (%)” value is recorded as 101.08% and the “Enzymatic hOGA; pIC50” value is listed as 7.35. At OGA, the “Cellular hOGA; pEC50” value is on record as 7.61 and the “Cellular Emax (%)” value turned out to be 87.83%.
As for `CC(=O)Nc1ncc(CN2CCCC(c3cc(C)nc4cc[nH]c34)C2)s1` (centres unmarked) [Product 96], in assay [1] (setting [2]), the “Enzymatic Emax (%)” value is recorded as 99.16% and the “Enzymatic hOGA; pIC50” value is given as 6.15. Besides, on OGA, the “Cellular hOGA; pEC50” value is 6.40 and the “Cellular Emax (%)” value came to 70.38%.
As for `CC(=O)Nc1ncc(CN2CCCC(Cc3cnc4cc[nH]c4c3)C2)s1` (centres unmarked) [Product 97], in assay [1] (setting [2]), the maximal response (Emax) was found to be 102% and the IC50 is 1.74 nM. Besides, at OGA, the negative-log EC50 (pEC50) is 8.11 and the maximum response (Emax) was 109%.
Taken in the same sequence, the figures for `CC(=O)Nc1ncc(CN2CCCC(c3ccc4c(ccn4C)n3)C2)s1` (centres unmarked) [Product 100] were 98.5%, 309 nM, 6.71 and 85.7%.
Take `CC(=O)Nc1ncc(CN2CCCC(c3cc4ccn(C)c4nc3C)C2)s1` (centres unmarked) [Product 101]: in assay [1] (setting [2]), the Emax is 102% and the IC50 is 6.61 nM. Moreover, on OGA, the negative logarithm of the EC50 (pEC50) is 8.03 and the Emax was found to be 114%.
Take `CC(=O)Nc1ncc(CN2CCCC(c3cnc4cc[nH]c4c3)C2)s1` (centres unmarked) [Product 106]: in assay [1] (setting [2]), the Emax was 101% and the IC50 was 275 nM. In addition, at OGA, the pEC50 is 6.55 and the Emax came to 71%.
For `CC(=O)Nc1ncc(CN2CC[C@H](Cc3cccc4nccn34)C2)s1` [Product 107], in assay [1] (setting [2]), the Emax came out at 101% and the IC50 is 8.13 nM. In addition, at OGA, the pEC50 is 7.26 and the maximum response (Emax) amounted to 82%.

The record behind these values is patent publication US20200157092A1, “[1,2,4]-TRIAZOLO [1,5-A]-PYRIMIDINYL DERIVATIVES SUBSTITUTED WITH PIPERIDINE, […] […] OGA INHIBITORS” (priority 2017, published 2020).
